The results in this text go back to patent US4138496A, “SY-1 substance” (Kaken Chemical Co., Ltd., priority 1977, dated 1979).

SMILES strings stand for the structures. Values after ≈ are worked out from the molar mass of the structure shown.

One data set relates to Mycobacterium smegmatis. The data set can be described thus: Minimum inhibitory concentration. Conditions: Mycolicibacterium smegmatis, read-out: Minimum inhibitory concentration.
The test system of the next data set is Staphylococcus aureus. As to the kind of experiment: Minimum inhibitory concentration. Conditions: read-out: Minimum inhibitory concentration.
A further data set deals with Klebsiella pneumoniae. As to the kind of experiment: Minimum inhibitory concentration. Conditions: read-out: Minimum inhibitory concentration.
Another data set relates to Micrococcus flavus. The data set can be described thus: Minimum inhibitory concentration. Conditions: read-out: Minimum inhibitory concentration.
A further data set concerns Alternaria kikuchiana. As to the kind of experiment: Minimum inhibitory concentration. The data set is classed as cell-based. As to conditions: PS: potato-sucrose agar, Na salt.
The test system of the next data set is Bacillus circulans. The data set can be described thus: Minimum inhibitory concentration. As to conditions: Paenibacillus illinoisensis, read-out: Minimum inhibitory concentration.
The next data set has as its system Psendomonas aeruginosa. The data set can be described thus: Minimum inhibitory concentration. Conditions: read-out: Minimum inhibitory concentration.
Another data set has as its system Mycobacterium avium. As to the kind of experiment: Minimum inhibitory concentration. As to conditions: read-out: Minimum inhibitory concentration.
Another data set relates to Bacillus megaterium. As to the kind of experiment: Minimum inhibitory concentration. Conditions: Priestia megaterium, read-out: Minimum inhibitory concentration.
For a further data set, the system named is Escherichia coli. The data set can be described thus: Minimum inhibitory concentration. As to conditions: read-out: Minimum inhibitory concentration.
Data set [1] in a line: Toxicity (LD50), mice, orally. As to conditions: mouse, in vivo, po.
The next data set deals with Proteus vulgaris. As to the kind of experiment: Minimum inhibitory concentration. Conditions: read-out: Minimum inhibitory concentration.
Data set [2] concerns Staphylococcus epidermidis. As to the kind of experiment: Minimum inhibitory concentration. As to conditions: read-out: Minimum inhibitory concentration.
Another data set concerns Piricularia oryzae. The data set can be described thus: microbe, parasite or virus in culture. The data set is classed as cell-based. As to conditions: read-out: Minimum inhibitory concentration.
A further data set relates to Micrococcus luteus. The data set can be described thus: Minimum inhibitory concentration. Conditions: read-out: Minimum inhibitory concentration.
The next data set deals with Bacillus subtilis. The data set can be described thus: Minimum inhibitory concentration. Conditions: read-out: Minimum inhibitory concentration.
The test system of a further data set is Mycobacterium phlei. As to the kind of experiment: Minimum inhibitory concentration. Conditions: Mycolicibacterium phlei, read-out: Minimum inhibitory concentration.
A short description of another data set: Stability. Conditions: Na salt.

Excerpt for Micrococcus luteus: (§1) In the Table, N indicates Nutrient agar medium, GN Glycerine nutrient medium and PS Potato-sucrose agar medium.
Excerpt for Mycobacterium avium: as §1
GN: 4% glycerol nutrient agar
Excerpt for Mycobacterium phlei: as §1
GN: 4% glycerol nutrient agar
Excerpt for Mycobacterium smegmatis: as §1
GN: 4% glycerol nutrient agar

For orientation: LD50 means the dose expected to kill half of the subjects tested. In the case of `CCC(C(=O)O)C1CCC(C)C(C(C)C(O)C(C)C(=O)C(CC)C2OC3(C=CCC4(CCC(C)(C5CCC(O)(CC)C(C)O5)O4)O3)C(C)CC2C)O1` (stereo not shown) [SY-1 substance], the MIC in the data set with Mycobacterium smegmatis was above 100 µg/mL; in the data set with Staphylococcus aureus, 100 µg/mL (≈ 136 µM); with Klebsiella pneumoniae it was above 100 µg/mL; with Micrococcus flavus it was 100 µg/mL (≈ 136 µM); with Alternaria kikuchiana, above 100 µg/mL; in the data set on Bacillus circulans, 12.5 µg/mL (≈ 17 µM). In addition, the MIC in the data set on Psendomonas aeruginosa was above 100 µg/mL; with Mycobacterium avium, above 100 µg/mL; in the data set with Bacillus megaterium it was 50 µg/mL (≈ 68 µM); in the data set with Escherichia coli, above 100 µg/mL; in the data set on Proteus vulgaris it was above 100 µg/mL; in data set [2] it was 50 µg/mL (≈ 68 µM). For the same molecule, the MIC in the data set with Piricularia oryzae was above 100 µg/mL; with Micrococcus luteus it was 100 µg/mL (≈ 136 µM); in the data set with Bacillus subtilis, 100 µg/mL (≈ 136 µM); with Mycobacterium phlei it was above 100 µg/mL. In addition, the LD50 in data set [1] turned out to be 51 mg/kg. Moreover, the Stability entry in the data set “Stability” (pH 7-9) is “stable in pH 7-9”; in the data set “Stability” (pH lower than 6), “unstable in pH lower than 6”. In addition, the “Solubility in organic solvents” value in “Solubility” (alcohols, acetates, chloroform, ether, carbon tetrachloride, benzene and n-hexane, Na salt) is on record as “soluble”. For the same molecule, the “Solubility in various organic solvents” value in the data set “Solubility” (general statement for isolation by solvent extraction) was “soluble in various organic solvents”. Further, in the data set “Solubility” (water, Na salt), the Solubility in water result is “insoluble in water”.
